Reference: patent US20230286973A1, “PROTEIN SECRETION INHIBITORS” (KEZAR LIFE SCIENCES, priority 2020, published 2023)

Tests used:
[1] = system: PD1-ss+10aa/Gaussia Luciferase; assay: Dox-Induced PD1-ss-Gluc Assay; assay type: cell-based; conditions: 24 hr Dox induction; 293FRT/TO cells; mean; read-out: 24 hr Dox Inducible PD1ssGluc 293FRT/TO: Mean IC50
Outline: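 Compounds were added in DMSO/media with doxycycline and incubated at 37 °C, 5% CO2, on 293 T-REx cells plated one day earlier. These cells stably express, under tetracycline-regulated control, a Gaussia luciferase fused to the PD1 signal peptide plus 10 residues. Structures drawn without stereochemistry were tested as stereoisomer mixtures.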

[2] = system: TNFα-FL/Gaussia Luciferase; assay: Dox Induced TNFα-FL-Gluc Assay; assay type: cell-based; conditions: for IC50: 24 hr Dox induction, 293FRT/TO cells, mean, read-out: 24 hr Dox Inducible TNFaFLGluc 293FRT/TO: Mean IC50; for 24 hr Dox Inducible TNFaFLGluc 293FRT/TO: TNF/PD1: ratio of TNFaFLGluc IC50 to PD1ssGluc IC50, '<=>' given where both are I.A.
Outline: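 Cells are seeded one day ahead, then treated with compound plus doxycycline at 37 °C, 5% CO2. The stable Flp-In 293 T-REx line expresses full-length TNFα (amino acids 1-233) with Gaussia luciferase fused to its 3′ end, inducibly via T-REx.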

[3] = system: HER3-ss+4aa/Gaussia Luciferase; assay: Dox-Induced Her3-ss-Gluc Assay; assay type: cell-based; conditions: 24 hr Dox induction; 293FRT/TO cells; mean; read-out: 24 hr Dox Inducible Her3(ss + 4)Gluc 293FRT/TO: Mean IC50
Outline: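 Expression of a Gaussia luciferase reporter carrying the HER3 signal sequence plus 4 amino acids is induced by doxycycline in stably transfected Flp-In 293 T-REx cells. Compounds are added with doxycycline at 37° C., 5% CO2. Undefined stereocentres denote stereoisomer mixtures.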

[4] = system: IL-2-FL/Gaussia Luciferase; assay: Dox Induced IL2-FL-Gluc Assay; assay type: cell-based; conditions: for IC50: 24 hr Dox induction, 293FRT/TO cells, mean, read-out: 24 hr Dox Inducible IL2FLGluc 293FRT/TO: Mean IC50; for 24 hr Dox Inducible IL2FLGluc 293FRT/TO: IL2/PD1: ratio of IL2FLGluc IC50 to PD1ssGluc IC50, '<=>' given where both are I.A.
Outline: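 Reporter is Gaussia luciferase fused to the 3′ end of full-length IL-2 (aa 1-153), expressed from a doxycycline-inducible T-REx construct in stably selected Flp-In 293 cells. Compounds were co-added with doxycycline and incubated at 37° C, 5% CO2.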

[5] = system: multiple myeloma cell line NCI-H929; assay: H929 Cell Viability Assay; assay type: cell-based, human; conditions: Homo sapiens, NCI-H929, 48 h, NCI-H929 cells, Celltiter-Glo
Outline: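 Plate the myeloma cells in RPMI 1640 with 10% FBS, add serially diluted compound, incubate for 48 hours at 37° C, then add CellTiter-Glo and read luciferase signal.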

[6] = system: multiple myeloma cell line U266B1; assay: U266 Cell Viability Assay; assay type: cell-based, human; conditions: Homo sapiens, U-266, 48 h, U266B1 cells, Celltiter-Glo
Outline: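 48 h treatment, 37° C./5% CO2, RPMI 1640 + 10% FBS; viability by CellTiter-Glo luminescence.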

[7] = Liver Microsome Stability Assay (rat); conditions: rat liver microsomes, with NADPH, 1.0 uM compound
Method: (§1) Stability of a compound was assessed in the presence of liver microsomes from various sources—mouse, rat, monkey and human liver microsomes. 1.0 uM compound, 0.4% DMSO in 0.1 M Potassium Phosphate with 1.0 mg/mL liver microsomes, were incubated at 37° C. with or without 1 mM NADPH. The samples were quenched at 0, and 30 minutes.

[8] = Liver Microsome Stability Assay (mouse); conditions: mouse liver microsomes, with NADPH, 1.0 uM compound
Method: as §1

[9] = Liver Microsome Stability Assay (human); conditions: human liver microsomes, with NADPH, 1.0 uM compound
Method: as §1

[10] = Liver Microsome Stability Assay (monkey); conditions: monkey liver microsomes, with NADPH, 1.0 uM compound
Method: as §1

Compound: N#CCC1(Cn2cccc2C(=O)Nc2nc([C@H]3CCCN3c3ccccc3)cs2)CCC1 [Compound C9, (R)-1-((1-(cyanomethyl)cyclobutyl)methyl)-N-(4-(1-phenylpyrrolidin-2-yl)thiazol-2-yl)-1H-pyrrole-2-carboxamide]
- IC50 [1]: 4.56 µM
- IC50 [2]: > 25 µM
- 24 hr Dox Inducible TNFaFLGluc 293FRT/TO: TNF/PD1 [2]: >5.49
- IC50 [3]: 6.1 µM
- IC50 [4]: 7.54 µM
- 24 hr Dox Inducible IL2FLGluc 293FRT/TO: IL2/PD1 [4]: 1.7
- EC50 [5]: > 25 µM
- EC50 [6]: > 25 µM
- Liver Microsome Stability (Multiple Species): Rat - % Remaining after 30 min w/NADPH [7]: 8.24%
- Liver Microsome Stability (Multiple Species): Mouse - % Remaining after 30 min w/NADPH [8]: 0.81%
- Liver Microsome Stability (Multiple Species): Human - % Remaining after 30 min w/NADPH [9]: 3.68%
- Liver Microsome Stability (Multiple Species): Monkey - % Remaining after 30 min w/NADPH [10]: 0.38%

Compound: O=C(Nc1nc([C@H]2CCCN2c2ccccc2)cs1)c1cccn1Cc1ccc(=O)[nH]c1 [Compound C10]
- IC50 [1]: 5.21 µM
- IC50 [2]: > 25 µM
- 24 hr Dox Inducible TNFaFLGluc 293FRT/TO: TNF/PD1 [2]: >4.80
- IC50 [3]: 13.9 µM
- IC50 [4]: 7.09 µM
- 24 hr Dox Inducible IL2FLGluc 293FRT/TO: IL2/PD1 [4]: 1.4
- EC50 [5]: 24.3 µM
- EC50 [6]: > 25 µM
- Liver Microsome Stability (Multiple Species): Rat - % Remaining after 30 min w/NADPH [7]: 38.8%
- Liver Microsome Stability (Multiple Species): Mouse - % Remaining after 30 min w/NADPH [8]: 29.5%
- Liver Microsome Stability (Multiple Species): Human - % Remaining after 30 min w/NADPH [9]: 22.6%
- Liver Microsome Stability (Multiple Species): Monkey - % Remaining after 30 min w/NADPH [10]: 9.66%

Compound: O=C(O)CCCCn1cccc1C(=O)Nc1nc([C@H]2CCCN2c2ccccc2)cs1 [Compound C11]
- IC50 [1]: > 25 µM
- IC50 [2]: > 25 µM
- IC50 [3]: > 25 µM
- IC50 [4]: > 25 µM
- 24 hr Dox Inducible IL2FLGluc 293FRT/TO: IL2/PD1 [4]: 1
- EC50 [5]: > 25 µM
- EC50 [6]: > 25 µM
- Liver Microsome Stability (Multiple Species): Rat - % Remaining after 30 min w/NADPH [7]: 83.1%
- Liver Microsome Stability (Multiple Species): Mouse - % Remaining after 30 min w/NADPH [8]: 52.3%
- Liver Microsome Stability (Multiple Species): Human - % Remaining after 30 min w/NADPH [9]: 65.2%
- Liver Microsome Stability (Multiple Species): Monkey - % Remaining after 30 min w/NADPH [10]: 76.1%

Compound: O=C(O)CCn1cccc1C(=O)Nc1nc([C@H]2CCCN2c2ccccc2)cs1 [Compound C12]
- IC50 [1]: > 25 µM
- IC50 [2]: > 25 µM
- IC50 [3]: > 25 µM
- IC50 [4]: > 25 µM
- 24 hr Dox Inducible IL2FLGluc 293FRT/TO: IL2/PD1 [4]: 1
- EC50 [5]: > 25 µM
- EC50 [6]: > 25 µM
- Liver Microsome Stability (Multiple Species): Rat - % Remaining after 30 min w/NADPH [7]: 76.3%
- Liver Microsome Stability (Multiple Species): Mouse - % Remaining after 30 min w/NADPH [8]: 60.4%
- Liver Microsome Stability (Multiple Species): Human - % Remaining after 30 min w/NADPH [9]: 75.1%
- Liver Microsome Stability (Multiple Species): Monkey - % Remaining after 30 min w/NADPH [10]: 90.9%

Compound: O=C(O)CCCn1cccc1C(=O)Nc1nc([C@H]2CCCN2c2ccccc2)cs1 [Compound C13]
- IC50 [1]: > 25 µM
- IC50 [2]: > 25 µM
- IC50 [3]: > 25 µM
- IC50 [4]: > 25 µM
- 24 hr Dox Inducible IL2FLGluc 293FRT/TO: IL2/PD1 [4]: 1
- EC50 [5]: > 25 µM
- EC50 [6]: > 25 µM
- Liver Microsome Stability (Multiple Species): Rat - % Remaining after 30 min w/NADPH [7]: 87.9%
- Liver Microsome Stability (Multiple Species): Mouse - % Remaining after 30 min w/NADPH [8]: 64.9%
- Liver Microsome Stability (Multiple Species): Human - % Remaining after 30 min w/NADPH [9]: 82.1%
- Liver Microsome Stability (Multiple Species): Monkey - % Remaining after 30 min w/NADPH [10]: 81.3%

Compound: O=C(Nc1nc([C@H]2CCCN2c2ccccc2)cs1)c1cccn1CCCc1nnn[nH]1 [Compound C14, (R)-1-(3-(1H-tetrazol-5-yl)propyl)-N-(4-(1-phenylpyrrolidin-2-yl)thiazol-2-yl)-1H-pyrrole-2-carboxamide]
- IC50 [1]: > 25 µM
- IC50 [2]: > 25 µM
- IC50 [3]: > 25 µM
- IC50 [4]: > 25 µM
- 24 hr Dox Inducible IL2FLGluc 293FRT/TO: IL2/PD1 [4]: 1
- EC50 [5]: > 25 µM
- EC50 [6]: > 25 µM
- Liver Microsome Stability (Multiple Species): Rat - % Remaining after 30 min w/NADPH [7]: 78.7%
- Liver Microsome Stability (Multiple Species): Mouse - % Remaining after 30 min w/NADPH [8]: 57.8%
- Liver Microsome Stability (Multiple Species): Human - % Remaining after 30 min w/NADPH [9]: 74.3%
- Liver Microsome Stability (Multiple Species): Monkey - % Remaining after 30 min w/NADPH [10]: 90.3%

Compound: NC(=O)CCn1cccc1C(=O)Nc1nc([C@H]2CCCN2c2ccccc2)cs1 [Compound C15]
- IC50 [1]: > 25 µM
- IC50 [2]: > 25 µM
- IC50 [3]: > 25 µM
- IC50 [4]: > 25 µM
- 24 hr Dox Inducible IL2FLGluc 293FRT/TO: IL2/PD1 [4]: 1
- EC50 [5]: > 25 µM
- EC50 [6]: > 25 µM
- Liver Microsome Stability (Multiple Species): Rat - % Remaining after 30 min w/NADPH [7]: 18.3%
- Liver Microsome Stability (Multiple Species): Mouse - % Remaining after 30 min w/NADPH [8]: 31.7%
- Liver Microsome Stability (Multiple Species): Human - % Remaining after 30 min w/NADPH [9]: 29.3%
- Liver Microsome Stability (Multiple Species): Monkey - % Remaining after 30 min w/NADPH [10]: 22.4%

Compound: O=C(Nc1nc([C@H]2CCCN2c2ccccc2)cs1)c1cccn1CCc1nnn[nH]1 [Compound C16, (R)-1-(2-(1H-tetrazol-5-yl)ethyl)-N-(4-(1-phenylpyrrolidin-2-yl)thiazol-2-yl)-1H-pyrrole-2-carboxamide]
- IC50 [1]: 8.08 µM
- IC50 [2]: > 25 µM
- 24 hr Dox Inducible TNFaFLGluc 293FRT/TO: TNF/PD1 [2]: >3.09
- IC50 [3]: 8.93 µM
- IC50 [4]: 6.9 µM
- 24 hr Dox Inducible IL2FLGluc 293FRT/TO: IL2/PD1 [4]: 0.85
- EC50 [5]: > 25 µM
- EC50 [6]: > 25 µM
- Liver Microsome Stability (Multiple Species): Rat - % Remaining after 30 min w/NADPH [7]: 3.26%
- Liver Microsome Stability (Multiple Species): Mouse - % Remaining after 30 min w/NADPH [8]: 26.7%
- Liver Microsome Stability (Multiple Species): Human - % Remaining after 30 min w/NADPH [9]: 8.13%
- Liver Microsome Stability (Multiple Species): Monkey - % Remaining after 30 min w/NADPH [10]: 78.9%

Compound: Cn1cccc1C(=O)Nc1nc([C@H]2CCCN2c2ccccc2)cs1 [Compound C17, (R)-1-methyl-N-(4-(1-phenylpyrrolidin-2-yl)thiazol-2-yl)-1H-pyrrole-2-carboxamide]
- IC50 [1]: 22.3 µM
- IC50 [2]: > 25 µM
- 24 hr Dox Inducible TNFaFLGluc 293FRT/TO: TNF/PD1 [2]: >1.12
- IC50 [3]: > 25 µM
- IC50 [4]: 6.75 µM
- 24 hr Dox Inducible IL2FLGluc 293FRT/TO: IL2/PD1 [4]: 0.3
- EC50 [5]: > 25 µM
- EC50 [6]: > 25 µM
- Liver Microsome Stability (Multiple Species): Rat - % Remaining after 30 min w/NADPH [7]: 10.3%
- Liver Microsome Stability (Multiple Species): Mouse - % Remaining after 30 min w/NADPH [8]: 9.27%
- Liver Microsome Stability (Multiple Species): Human - % Remaining after 30 min w/NADPH [9]: 58.7%
- Liver Microsome Stability (Multiple Species): Monkey - % Remaining after 30 min w/NADPH [10]: 30.9%
